In ChEMBL document CHEMBL1151486, “Decomposition of FK 409, a new vasodilator: Identification of nitric oxide as a metabolite” (Bioorg Med Chem Lett, 1995):

Organism: Oryctolagus cuniculus
Assay: Evaluation of vasodilatory activity in Isolated rabbit aorta strips
Assay type: functional

Compound	IC50 [µM]
CC/C(=C\C(=N/O)C(N)=O)C(C)[N+](=O)[O-] (configuration not stated)	0.15
CC/C(=C\C(=O)C(N)=O)C(C)[N+](=O)[O-] (configuration not stated)	7
